Holding throughout (assay): NCI-60 cell line screen, 48 h
For assay [1], the system named is CCRF-CEM leukemia.
Assay [2] deals with HOP-92 NSCLC.
The subject of assay [3] is K-562 leukemia.
Assay [4] relates to KM12 colon.
Assay [5] deals with MDA-MB-231 breast.
The test system of assay [6] is NCI-H460 lung.
For assay [7], the system named is NCI-H522 lung.
For assay [8], the system named is SK-OV-3 ovarian.
For assay [9], the system named is SNB-19 CNS.
Assay [10] relates to TK-10 renal.

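Assay format: 96-well plates, 48-hour exposure. Here, GI50 denotes the concentration required for 50% inhibition of growth. TGI marks complete inhibition of growth.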 Bounds are passed on as bounds.

For `Cc1cn(Cc2ccccc2CCl)c(=O)n(Cc2ccccc2CCl)c1=O`, the GI50 in assay [1] was 1.93 µM; in assay [2] it was 1.86 µM; in assay [3], 3.19 µM; in [4], 1.99 µM; in assay [5] it was 1.86 µM; in assay [6], 1.98 µM. For the same molecule, the GI50 in [7] was 1.3 µM; in [8], 3.27 µM; in assay [9], 2.57 µM; in assay [10], 2.92 µM. In addition, the TGI in [1] came to 5.5 µM; in assay [2], 3.62 µM; in [3], 10 µM; in assay [4] it was 4.48 µM; in assay [5] it was 3.57 µM; in [6], 4.67 µM. Also, the TGI in assay [7] was determined as 2.94 µM; in [8], 9.62 µM; in [9], 6.66 µM; in assay [10] it was 6.53 µM.
Consider `COc1cc(NC(=O)c2cc(O)c(C/C=C(\C)CCC=C(C)C)c(O)c2)cc2c1O[C@]1(C)CC[C@@H](O)C(C)(C)[C@H]1C2`, for which the GI50 is 0.463 µM in assay [1]; 0.627 µM in assay [2]; 0.957 µM in assay [3]; 1.63 µM in assay [4]; 1.11 µM in assay [5]; 1.97 µM in assay [6]. The GI50 was 2.02 µM in [7], 1.79 µM in assay [8], 1.36 µM in assay [9] and 3.42 µM in [10]. In addition, the TGI is 7.21 µM in assay [1]; 3.89 µM in assay [2]; 4.88 µM in assay [3]; 4.44 µM in [4]; 5.04 µM in [5]; 11.2 µM in [6]. In addition, the TGI in assay [7] is 6.5 µM; in assay [8] it was 12.9 µM; in assay [9], 4.46 µM; in assay [10], 13.7 µM.
As for `CC1=NN(c2ccccc2)C(=O)C1N=Nc1ccc(S(N)(=O)=O)cc1` (stereo not given), the TGI in [1], in [2], in assay [3], in assay [4], in [5] and in [6] was more than 100 µM throughout. Besides, the TGI in assay [7], in assay [8], in assay [9] and in assay [10] was more than 100 µM each time.
`Cc1ccc(-c2c3c(N)c4c(nc3nc3c2c(C)nn3-c2ccccc2)CCC4)cc1`: the GI50 was 2.54 µM in assay [1]; 15.7 µM in assay [2]; 2.42 µM in [3]; 4.4 µM in assay [4]; 1.85 µM in [5]; 2.02 µM in assay [6]. Also, the GI50 in assay [7] is 18.2 µM; in assay [8], 7.01 µM; in assay [9], 3.85 µM; in assay [10], 2.43 µM. Besides, the TGI turned out to be 7.2 µM in [1]; 36.3 µM in assay [2]; 6.56 µM in assay [3]; 16 µM in [4]; 3.98 µM in assay [5]; 4.44 µM in assay [6]. Further, the TGI came out at 40.3 µM in [7], 15 µM in assay [8], 18 µM in assay [9] and 5.42 µM in assay [10].
Regarding `CCCCN(CCCC)CCC(O)c1cc2ccc(C(F)(F)F)cc2c2cc(C(F)(F)F)ccc12` (stereo not given), the GI50 in assay [1] is 2.96 µM; in assay [2], 1.49 µM; in assay [3] it was 2.06 µM; in assay [4], 2.93 µM; in assay [5], 1.33 µM; in assay [6], 1.84 µM. Moreover, the GI50 in [7] is 1.79 µM; in assay [8] it was 3.98 µM; in [9], 3.92 µM; in assay [10], 2.28 µM. Also, the TGI in [1] worked out at 8.96 µM; in [2], 4.26 µM; in assay [3], 5.59 µM; in assay [4], 9.24 µM; in assay [5] it was 3.16 µM; in assay [6], 4.09 µM. Further, the TGI in assay [7] was determined as 3.54 µM; in [8], 15.3 µM; in assay [9] it was 15.3 µM; in [10] it was 4.62 µM.
Turning to `O=C1OC(OC/C(Br)=C(/Br)COC2OC(=O)C(Cl)=C2Cl)C(Cl)=C1Cl` (stereo not given), the TGI was 4.93 µM in assay [1]; 29.2 µM in assay [2]; 5.85 µM in [3]; 21.8 µM in [4]; 17 µM in assay [5]; 39.4 µM in [6]. Besides, the TGI in assay [7] is 4.53 µM; in [8], more than 55.8 µM; in [9], 37 µM; in [10] it was 27 µM.
With `CN(CCCN(C)CCC1CCCCC1)CCC1CCCCC1`, the GI50 in assay [1] is 3.03 µM; in [2], 0.687 µM; in assay [3] it was 1.97 µM; in assay [4] it was 2.04 µM; in assay [5], 1.38 µM; in [6], 2.65 µM. In addition, the GI50 in assay [7] is 1.77 µM; in [8] it was 5.34 µM; in [9] it was 3.76 µM; in assay [10], 1.62 µM. Besides, the TGI in [1] came out at 21.7 µM; in assay [2], 5.72 µM; in assay [3], 7.02 µM; in [4], 4.12 µM; in assay [5], 4.68 µM; in assay [6] it was 6.7 µM. The TGI in assay [7] is 4.36 µM; in [8], 17.1 µM; in assay [9] it was 9.98 µM; in assay [10] it was 3.55 µM.
Turning to `O=C1COCCN1c1ccc(NCc2cn(C(=O)c3ccc(Cl)cc3)c3ccccc23)cc1`, the GI50 in assay [1] was 5.62 µM; in assay [2] it was 1.66 µM; in assay [3], 1.84 µM; in assay [4] it was 13.7 µM; in assay [5], 4.61 µM; in assay [6], 0.268 µM. Besides, the GI50 in assay [7] was 5.12 µM; in assay [8], 2.27 µM; in assay [9], 20.8 µM; in [10], 0.148 µM. The TGI was more than 100 µM in assay [1]; 15 µM in assay [2]; 17 µM in [3]; more than 100 µM in assay [4]; 22.9 µM in [5]; 12.7 µM in assay [6]. Besides, the TGI in [7] was 35.9 µM; in assay [8], 92.1 µM; in assay [9], more than 100 µM; in [10] it was 2.18 µM.
Regarding `O=C1NC(c2ccccc2)N=C2Oc3ccccc3C=C12` (stereo not given), the TGI was 2.65 µM in [1]; more than 100 µM in [2]; more than 100 µM in assay [3]; more than 22.8 µM in [4]; more than 31.6 µM in assay [5]; more than 43.7 µM in assay [6]. In addition, the TGI in assay [7], in assay [8], in assay [9] and in assay [10] was more than 100 µM each time.
Turning to `CC(=O)n1c(-c2ccc(Cl)c(Cl)c2)cn(-c2ccc(Cl)cc2)c1=O`, the GI50 was 16.8 µM in assay [1]; 13.9 µM in assay [2]; 24.1 µM in assay [3]; 67 µM in [4]; 17.6 µM in assay [5]; 30.8 µM in assay [6]. The GI50 is 19.3 µM in assay [7], 19.2 µM in [8], 13.4 µM in assay [9] and 18.7 µM in assay [10]. For the same molecule, the TGI was 38 µM in assay [1]; 30.2 µM in assay [2]; 80.5 µM in [3]; more than 100 µM in assay [4]; 62.6 µM in [5]; more than 100 µM in [6]. In addition, the TGI in assay [7] turned out to be 53.6 µM; in assay [8], 44.1 µM; in assay [9], 40.7 µM; in [10], 38 µM.
`CC(C)=CCc1cc(C2COc3cc4c(c(O)c3C2=O)C=CC(C)(C)O4)c(O)cc1O` (stereo not given): the TGI in assay [1] turned out to be 28.7 µM; in [2] it was 33.1 µM; in assay [3], 10.7 µM; in [4] it was 32.7 µM; in assay [5], 27.5 µM; in assay [6], 27.4 µM. Also, the TGI in assay [7] is 25.9 µM; in assay [8], 29.8 µM; in [9] it was 40.7 µM; in [10], 31.7 µM.
For the molecule `COC(=O)Nc1nc2ccc(S(=O)(=O)c3ccc(NC(=O)Nc4cc(C(F)(F)F)ccc4F)cc3)cc2[nH]1`, the GI50 was more than 25 µM in assay [1]; more than 25 µM in [2]; more than 25 µM in assay [3]; more than 21.1 µM in [4]; more than 25 µM in assay [5]; more than 25 µM in assay [6]. The GI50 in assay [7], in assay [8], in assay [9] and in [10] was more than 25 µM in each case. Further, the TGI in [1], in assay [2], in assay [3], in [4], in assay [5] and in [6] was more than 25 µM each time. Also, the TGI in assay [7], in assay [8], in assay [9] and in [10] was more than 25 µM each time.
`CN(C)c1ncnc2c1ccn2C1OC(CO)C(O)C1O` (stereo not given): the GI50 is 0.234 µM in assay [1]; 0.883 µM in assay [2]; 1.4 µM in assay [3]; 34.9 µM in assay [4]; 1.82 µM in [5]; 4.19 µM in assay [6]. In addition, the GI50 in [7] was more than 100 µM; in assay [8], 0.884 µM; in assay [9] it was 44.5 µM; in assay [10], 1.83 µM. Besides, the TGI in assay [1] was 1.76 µM; in assay [2] it was 5.64 µM; in assay [3], more than 100 µM; in assay [4], more than 100 µM; in [5], 5.96 µM; in assay [6], more than 100 µM. The TGI in assay [7] was more than 100 µM; in assay [8] it was 21.4 µM; in assay [9] it was more than 100 µM; in [10] it was more than 100 µM.
With `O=c1[nH]nc(-c2ccccc2)c2c(-c3ccccc3)onc12`, the GI50 is 3.69 µM in [1]; 0.933 µM in assay [2]; 0.385 µM in assay [3]; 0.389 µM in assay [4]; 17.7 µM in [5]; 0.383 µM in assay [6]. Also, the GI50 was 0.648 µM in assay [7], 0.981 µM in assay [8], 11.2 µM in assay [9] and 0.999 µM in [10]. The TGI in assay [1] is more than 100 µM; in assay [2], more than 58.3 µM; in assay [3], more than 100 µM; in assay [4], more than 39.6 µM; in assay [5] it was more than 100 µM; in assay [6] it was more than 62.6 µM. Further, the TGI in [7] is 24.3 µM; in [8] it was 53.6 µM; in assay [9] it was more than 100 µM; in assay [10], more than 100 µM.
`COc1cc2nncc(SCc3ccc(Cl)c(Cl)c3)c2cc1OC`: the TGI in assay [1], in assay [2], in assay [3], in assay [4], in [5] and in assay [6] was more than 100 µM throughout. Also, the TGI in [7], in [8], in [9] and in assay [10] was more than 100 µM each time.

Values taken from PubChem BioAssay (NCI).
